Experimental data from ChEMBL document CHEMBL1201862, “PubChem BioAssay data set” (2004).
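96-well plates; 48 h exposure; 5 concentrations. Endpoints by linear interpolation between flanking doses. Not reached: highest tested concentration assigned. GI50 = concentration required for 50% inhibition of growth.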 Active and inactive are the calls of the source. No stated cut-off is given here; in the data, active = GI50 up to about 1.1 µM and inactive = higher.

Assays:
Test in all cases: DTP human tumour cell line panel, 48 h
IGROV-1 = tested on: IGROV-1
EKVX = tested on: EKVX
COLO 205 = tested on: COLO 205
KM12 = tested on: KM12
NCI-H226 = tested on: NCI-H226
TK-10 = tested on: TK-10
ACHN = tested on: ACHN
SNB-75 = tested on: SNB-75
SN12C = tested on: SN12C
786-0 = tested on: 786-0
K562 = tested on: K562
A549 = tested on: A549
OVCAR-4 = tested on: OVCAR-4
SK-MEL-5 = tested on: SK-MEL-5
SR = tested on: SR
SK-MEL-28 = tested on: SK-MEL-28
UO-31 = tested on: UO-31

Measured: GI50

NC(Cc1ccccc1)C(=O)OCN1C(=O)C2C3C=CC(C2C1=O)C1C2C(=O)N(COC(=O)C(N)Cc4ccccc4)C(=O)C2C31 (centres undefined)
inactive: IGROV-1 35.6 µM | EKVX > 100 µM | COLO 205 17.5 µM | KM12 21.3 µM | NCI-H226 46.7 µM | TK-10 49.3 µM | ACHN 23.1 µM | SNB-75 22.9 µM | SN12C 22.3 µM | 786-0 21.1 µM | K562 25.8 µM | A549 25.9 µM | OVCAR-4 18.3 µM | SK-MEL-5 18.3 µM | SR 27.7 µM | SK-MEL-28 22.9 µM

CC1=C(/C(C)=N/NC(=O)c2ccccc2O)C(C)C(/C(C)=N/NC(=O)c2ccccc2O)=C(C)N1
inactive: IGROV-1 10.6 µM | UO-31 15.5 µM | EKVX 14.7 µM | KM12 31.4 µM | TK-10 18.8 µM | ACHN 16.3 µM | SNB-75 11.6 µM | SN12C 45.1 µM | 786-0 18.5 µM | K562 16.6 µM | A549 21.5 µM | OVCAR-4 11.5 µM | SK-MEL-5 19.8 µM | SR 23.8 µM | SK-MEL-28 21.8 µM

Cc1cc(OC(=O)c2c(C)cc(OC(=O)c3c(C)cc(O)cc3O)cc2O)cc(O)c1C(=O)O [GYROPHORIC ACID]
inactive: IGROV-1 > 100 µM | UO-31 76.4 µM | EKVX > 100 µM | COLO 205 > 100 µM | KM12 > 100 µM | TK-10 > 100 µM | ACHN > 100 µM | SNB-75 91.6 µM | SN12C > 100 µM | 786-0 > 100 µM | K562 > 100 µM | A549 > 100 µM | OVCAR-4 > 100 µM | SK-MEL-5 > 100 µM | SK-MEL-28 > 100 µM

CCOc1ccc(NC(=O)C(=O)CC(=O)C2=C(C)Nc3ccccc3S2)cc1
inactive: IGROV-1 > 50 µM | UO-31 > 50 µM | EKVX > 50 µM | COLO 205 > 50 µM | KM12 > 50 µM | NCI-H226 > 50 µM | TK-10 > 50 µM | ACHN > 50 µM | SN12C > 50 µM | 786-0 > 50 µM | K562 > 50 µM | A549 > 50 µM | OVCAR-4 > 50 µM | SK-MEL-5 > 50 µM | SK-MEL-28 > 50 µM

CCN(CC)c1c(C(=O)/C=C/c2ccc(Cl)cc2)c(-c2ccccc2)nn(C)c1=O
inactive: IGROV-1 2.03 µM | UO-31 1.73 µM | EKVX 2.07 µM | COLO 205 2.03 µM | KM12 1.92 µM | NCI-H226 2.05 µM | TK-10 2.14 µM | ACHN 1.87 µM | SNB-75 2.97 µM | SN12C 2.1 µM | 786-0 1.85 µM | K562 2.54 µM | A549 1.92 µM | OVCAR-4 1.66 µM | SK-MEL-5 1.72 µM | SK-MEL-28 1.62 µM

CCOC(=O)c1ccc(/N=C\c2ccc(N(CCC#N)CCC#N)cc2)cc1
inactive: IGROV-1 81.8 µM | UO-31 27.2 µM | EKVX > 100 µM | COLO 205 53.7 µM | NCI-H226 > 100 µM | TK-10 39.6 µM | ACHN 43.2 µM | SNB-75 47.4 µM | SN12C > 100 µM | 786-0 99.5 µM | K562 28.2 µM | A549 70 µM | OVCAR-4 41.6 µM | SK-MEL-5 78.3 µM | SK-MEL-28 > 100 µM

CC(=O)NNc1nc(C)c(C(=O)/C=C/c2ccc(N(C)C)cc2)s1
inactive: IGROV-1 > 100 µM | UO-31 > 100 µM | EKVX > 100 µM | COLO 205 > 100 µM | KM12 > 100 µM | NCI-H226 > 100 µM | TK-10 > 100 µM | ACHN > 100 µM | SNB-75 79.8 µM | SN12C > 100 µM | 786-0 > 100 µM | K562 > 100 µM | A549 > 100 µM | SK-MEL-5 > 100 µM | SK-MEL-28 > 100 µM

O=C1[C@H]2ON(c3ccccc3)C(c3ccccc3F)[C@H]2C(=O)N1c1ccc(Cc2ccc(N3C(=O)[C@@H]4ON(c5ccccc5)C(c5ccccc5F)[C@@H]4C3=O)cc2)cc1 (some centres undefined)
inactive: IGROV-1 > 100 µM | UO-31 > 100 µM | COLO 205 > 100 µM | KM12 > 100 µM | NCI-H226 > 100 µM | ACHN > 100 µM | SNB-75 > 100 µM | SN12C > 100 µM | 786-0 > 100 µM | K562 > 100 µM | A549 > 100 µM | OVCAR-4 > 100 µM | SK-MEL-5 > 100 µM | SK-MEL-28 > 100 µM

Cc1ccc(C2=C(c3ccccc3)C(O)(c3ccc(C)cc3)C(c3ccccc3)=C2c2ccc(C)cc2)cc1
inactive: IGROV-1 > 100 µM | EKVX 72.1 µM | COLO 205 > 100 µM | KM12 > 100 µM | TK-10 > 100 µM | ACHN > 100 µM | SN12C > 100 µM | 786-0 > 100 µM | K562 > 100 µM | A549 > 100 µM | OVCAR-4 > 100 µM | SK-MEL-5 > 100 µM | SK-MEL-28 > 100 µM
